These results are taken from US6750348B1, “Chemokine receptor binding heterocyclic compounds” (AnorMED, Inc., priority 1999, dated 2004).

Holding throughout (type): cell-based
For assay [1], the system named is RANTES induced Ca flux in U87.CCR5 cells. Description: Inhibition of RANTES induced Ca flux in U87.CCR5 cells (FLIPR). The conditions noted are these: U-87-CCR5, at 20 μM, read-out: inhibited RANTES induced Ca flux. The protocol: (§1) Loading dye: Fluo-3, AM (Molecular Probes F-1241) is dissolved in anhydrous DMSO and stored frozen in aliquots. To increase the solubility of the dye in the loading medium, 10% (w/v) pluronic acid (Molecular Probes F-127) is added to the Fluo-3 stock solution immediately before use.
(§2) HBSS+20 mM Hepes buffer+0.2% BSA, pH 7.4. HBSS 10× [(w/o phenol red and sodium bicarbonate (Gibco 14 065-049)]; Hepes buffer 1M (Gibco 15 630-056), BSA (Sigma A3675). The flux buffer is vacuum-filtered and stored refrigerated for a maximum of 5 days. Before use in the experiment, the buffer is warmed at 37° C. in a waterbath.
(§3) The test compounds were diluted in flux buffer and added to 4 wells of a black microplate (4 parallel measurements per compound).
(§4) The chemokines are diluted in flux buffer to concentrations that are 4-fold higher than the desired concentrations required for stimulation of the cells (i.e. 2.5 nM for SDF-1α and 0.6 nM for RANTES). The chemokines were added to untreated 96-well Sero well compound plates (International Medical, Sterilin code 611F96). In the negative control well's (baseline monitoring), flux buffer is added instead of chemokine. As a positive control to check for dye loading efficiency, 20 μM digitonin (final concentration) was also included. The agonist plate was incubated in the FLIPR (37° C.) for 15-30 min.
(§5) The FLIPR settings (camera exposure time and laser power) are adjusted to obtain initial fluorescence values between 8,000 and 10,000 units. After monitoring a 20 second-baseline, the agonist (chemokine) (50 μL) is added by automatic pipettor with black pipette tips. Fluorescence is measured simultaneously in all wells of the microplate every 2 seconds (first 2 min) and thereafter every 6 seconds (additional 2 min). The average ca-flux measured in each set of 4 identical wells (one test compound) was calculated by the FLIPR software.
U87.CCR5 cells were seeded into the black microplates (Costar 3603) on the day before the experiment. The culture medium was removed from the cells and 100 μL of loading medium (DMEM+10% FBS+4 μM Fluo-3, AM) was added to each well and the plate was incubate at 37° C. for 45 min. The loading medium was then removed an the cells were washed twice with flux buffer using the CELL WASH microplate washer (Labsystems) followed by incubation in flux buffer for 10 min. at room temperature (the washing procedure was repeated twice). Finally, the wash buffer was removed from the microplate wells and 150 μL of the test compound, diluted in flux buffer to the desired concentration. The microplate was then incubated in the FLIPR drawer for 10 min. prior to testing. Measurements were performed as described above.
The compounds of the current invention were tested for inhibition of RANTES induced Ca flux in U87.CCR5 cells.

The subject of the next assay is HIV-1 NL4.3 or IIIB. Description: Inhibition of HIV-1 (NL4.3 or IIIB) replication in MT-4 cells (MTT). The conditions noted are these: Human immunodeficiency virus 1, IIIB. The procedure:
Compounds were tested for their ability to inhibit HIV-1 replication in MT-4 cells or PBMC's (peripheral blood mononucleocytes) using published procedures (for example, see: Labrosse et al. J. Virol. 1998, 6381-6388; Simmons et al. J. Virol. 1998, 8453-8457; Donzella et al. Nature Medicine 1998, 72-77; Schols et al. J. Exp. Med. 1997, 1383-1388; De Clercq et al. Antiviral Res. 1997, 147-156; and Bridger et al. U.S. patent application Ser. No. 09/111,895). In addition to the above references, experimental methods for performing anti-viral assays can also be found in: Bridger et al. J. Med. Chem. 1995, 38, 366-378; Bridger et al. J. Med. Chem. 1996, 39, 109-119; Bridger et al. U.S. Pat. No. 5,698,546; Bridger et al. U.S. Pat. No. 5,583,131; Bridger et al. U.S. Pat. No. 5,817,807; De Clercq et al. Antimicrob. Agents and Chemother. 1994, 38, 668-674.
1. The HIV-1 strains NL4.3 and IIIB are T-tropic strains that exclusively use CXCR4 as the co-receptor for entry into cells. MT-4 Cells express CXCR4 but not CCR5.
Inhibition of HIV-1 NL4.3 (or IIIB) replication assays were performed as previously described (Bridger et al. J. Med. Chem. 1999, 42, 3971-3981; De Clercq et al. Proc. Natl. Acad. Sci, 1992, 89, 5286-5290; De Clercq et al. Antimicrob. Agents Chemother. 1994, 38, 668-674; Bridger et al. J. Med. Chem. 1995, 38, 366-378). Anti-HIV activity and cytotoxicity measurements were carried out in parallel. They were based on the viability of MT-4 cells that had been infected with HIV in the presence of various concentrations of the test compounds. After the MT-4 cells were allowed to proliferate for 5 days, the number of viable cells was quantified by a tetrazolium-based calorimetric 3-(4,5-dimethylthiazol-2-yl)-2,5-diphenyltetrazolium bromide (MTT) procedure in 96-well microtrays. In all of these assays, viral input (viral multiplicity of infection, MOI) was 0.01, or 100 times the 50% cell culture infective dose (CCID50). The EC50 was defined as the concentration required to protect 50% of the virus-infected cells against viral cytopathicity.

Assay [2] deals with SDF-1α induced Ca flux in SUP-T1 cells. As to the kind of experiment: Inhibition of SDF-1α induced Ca flux in SUP-T1 cells (FLIPR). The conditions noted are these: Homo sapiens, read-out: inhibited SDF-1α induced Ca flux; for inhibition at 20 µg/mL: at 20 μg/mL. The protocol:
as §1, §2, §3, §4
SUP-T1 cells were centrifuged at room temperature (RT) and re-suspended in loading medium (RPMI-1640 containing 2% FBS and 4 μM Fluo-3, AM). The cells were incubate at room temperature for 45 min. then washed twice in flux buffer then incubated in flux buffer at room temperature for 10 min. The cells were centrifuged and re-suspended in flux buffer at a density of 3×10^6 cells per mL. […] The microplate is then gently centrifuged at room temperature. Homogeneous spreading of the cells on the bottom of the microplate wells was then confirmed with a microscope and the microplate was incubated in the FLIPR (37° C.) for 10 min. prior to testing.
as §5
The compounds of the current invention were tested for inhibition of SDF-1α induced Ca flux in SUP-T1 cells using the method described above.

The mark [3] stands for this setting: MT4, read-out: EC50, inhibition of HIV-1 NL4.3 or IIIB replication.

The structures appear in SMILES notation. Like-named read-outs stand apart in the source and are kept apart here.

As for `c1ccc(CCN(Cc2cccc(CNCc3ccccn3)c2)Cc2ccccn2)cc1` [Example 109, N-[-(phenyl)ethyl]-N,N′-bis(2-pyridinylmethyl)-1,3-benzenedimethanamine], the inhibition at 20 µM in assay [1] is over 20%.

On to `O=C(NCCN(Cc1ccc(CNCc2ccccn2)cc1)C1CCCc2cccnc21)Nc1ccccc1` (stereo not shown) [Example 55, N-(2-pyridinylmethyl)-N′-[2-(phenylureido)ethyl]-N′-(5,6,7,8-tetrahydro-8-quinolinyl)-1,4-benzenedimethanamine], for which, in the assay on HIV-1 NL4.3 or IIIB (setting [3]), the EC50 was under 20 µg/mL. The inhibition at 20 µg/mL in assay [2] was over 20%.

In the case of `c1ccc(CNCc2ccc(CN(Cc3ccc4ccccc4n3)C3CCCc4cccnc43)cc2)nc1` (stereo not shown) [Example 18, N-(2-pyridinylmethyl)-N′-(2-quinolinylmethyl)-N′-(5,6,7,8-tetrahydro-8-quinolinyl)-1,4-benzenedimethanamine], the EC50 in the assay with HIV-1 NL4.3 or IIIB (setting [3]) was under 20 µg/mL. In assay [2], the inhibition at 20 µg/mL is over 20%.

Take `c1ccc(CNCc2ccc(CN(Cc3nccs3)C3CCCc4cccnc43)cc2)nc1` (stereo not shown) [Example 28, N-(2-pyridinylmethyl)-N′-[2-thiazolylmethyl]-N′-(5,6,7,8-tetrahydro-8-quinolinyl)-1,4-benzenedimethanamine]: in the assay on HIV-1 NL4.3 or IIIB (setting [3]), the concentration giving a half-maximal response (EC50) was under 20 µg/mL. In addition, the inhibition at 20 µg/mL in assay [2] was over 20%.

`Oc1cccc2c1CC(NCc1ccc(CNCc3ccccn3)cc1)CC2` (stereo not shown) [Example 41, N-(2-pyridinylmethyl)-N′-(8-hydroxy-1,2,3,4-tetrahydro-2-naphthalenyl)-1,4-benzenedimethanamine]: in the assay with HIV-1 NL4.3 or IIIB (setting [3]), the EC50 is under 20 µg/mL. For the same compound, the inhibition at 20 µg/mL in assay [2] was over 20%.

On to `c1ccc(CNCc2ccc(CN(Cc3ncc[nH]3)C3CCCc4cccnc43)cc2)nc1` (stereo not shown) [Example 15, N-(2-pyridinylmethyl)-N′-(1H-imidazol-2-ylmethyl)-N′-(5,6,7,8-tetrahydro-8-quinolinyl)-1,4-benzenedimethanamine], for which, in the assay on HIV-1 NL4.3 or IIIB (setting [3]), the EC50 was under 20 µg/mL. Besides, the inhibition at 20 µg/mL in assay [2] is over 20%.

In the case of `c1ccc(CNCc2ccc(CN(Cc3ccccn3)C3CCCCc4cccnc43)cc2)nc1` (stereo not shown) [Example 85, N,N′-bis(2-pyridinylmethyl)-N′-(6,7,8,9-tetrahydro-5H-cyclohepta[b]pyridin-9-yl)-1,4-benzenedimethanamine], the EC50 in the assay with HIV-1 NL4.3 or IIIB (setting [3]) was under 20 µg/mL. The inhibition at 20 µg/mL in assay [2] was over 20%.

For `COc1ccc2c(c1)CC(NCc1ccc(CNCc3ccccn3)cc1)CC2` (stereo not shown) [Example 35, N-(2-pyridinylmethyl)-N′-(7-methoxy-1,2,3,4-tetrahydro-2-naphthalenyl)-1,4-benzenedimethanamine], in the assay with HIV-1 NL4.3 or IIIB (setting [3]), the EC50 is under 20 µg/mL. Also, the inhibition at 20 µg/mL in assay [2] is over 20%.

In the case of `Cc1nc[nH]c1CN(Cc1ccc(CNCc2ccccn2)cc1)Cc1ccccn1` [Example 166, N-[(4-methyl)-1H-imidazol-5-ylmethyl]-N,N′-bis(2-pyridinylmethyl)-1,4-benzenedimethanamine], the EC50 with HIV-1 NL4.3 or IIIB (MT4, read-out: EC50, inhibition of HIV-1 NLA.3 or IIIB replication) is under 20 µM. The inhibition at 20 µM in assay [2] was over 20%.

Consider `c1ccc(CNCc2ccc(CNC3CCc4cccnc4C3)cc2)nc1` (stereo not shown) [Example 45, N-(2-pyridinylmethyl)-N′-(5,6,7,8-tetrahydro-7-quinolinyl)-1,4-benzenedimethanamine], for which the EC50 with HIV-1 NL4.3 or IIIB (setting [3]) was under 20 µg/mL. Also, the inhibition at 20 µg/mL in assay [2] was over 20%.

`c1ccc(CNCc2ccc(CN(Cc3ccccn3)CC3CCc4cccnc43)cc2)nc1` (stereo not shown) [Example 89, N,N′-bis(2-pyridinylmethyl)-N′[(6,7-dihydro-5H-cyclopenta[b]pyridin-7-yl)methyl]-1,4-benzenedimethanamine]: the EC50 in the assay with HIV-1 NL4.3 or IIIB (setting [3]) is under 20 µg/mL. In addition, in assay [2], the inhibition at 20 µg/mL was over 20%.

`c1ccc(CNCc2ccc(CN(Cc3ccccn3)C3CCCc4cccnc43)cc2)nc1` (stereo not shown) [Example 84, N,N′-bis(2-pyridinylmethyl)-N′-(5,6,7,8-tetrahydro-8-quinolinyl)-1,4-benzenedimethanamine]: the EC50 in the assay with HIV-1 NL4.3 or IIIB (setting [3]) is under 20 µg/mL. For the same compound, the inhibition at 20 µg/mL in assay [2] was over 20%.

Consider `c1ccc(CNCc2ccc(CN(Cc3ccccn3)C3CCc4cccnc43)cc2)nc1` (stereo not shown) [Example 86, N,N′-bis(2-pyridinylmethyl)-N′-(6,7-dihydro-5H-cyclopenta[b]pyridin-7-yl)-1,4-benzenedimethanamine], for which the EC50 in the assay on HIV-1 NL4.3 or IIIB (setting [3]) is under 20 µg/mL. In addition, the inhibition at 20 µg/mL in assay [2] is over 20%.

Regarding `CC(C)CNCCN(Cc1ccc(CNCc2ccccn2)cc1)C1CCCc2cccnc21` (stereo not shown) [Example 48, N-(2-pyridinylmethyl)-N′-[2-(isobutylamino)ethyl]-N′-(5,6,7,8-tetrahydro-8-quinolinyl)-1,4-benzenedimethanamine], the EC50 with HIV-1 NL4.3 or IIIB (setting [3]) was under 20 µg/mL. For the same compound, the inhibition at 20 µg/mL in assay [2] is over 20%.

On to `Cn1cc(CN(CCc2ccccn2)Cc2cccc(CNCc3ccccn3)c2)c2ccccc21` [Example 180, N-[(1-methyl)benzo[b]pyrrol-3-ylmethyl]-N-[2-(2-pyridinyl)ethyl]-N′-(2-pyridinylmethyl)-1,3-benzenedimethanamine], for which the inhibition at 20 µM in assay [2] is over 20%.

`N=C(N)NCCN(Cc1ccc(CNCc2ccccn2)cc1)C1CCCc2cccnc21` (stereo not shown) [Example 51, N-(2-pyridinylmethyl)-N′-(2-guanidinoethyl)-N′-(5,6,7,8-tetrahydro-8-quinolinyl)-1,4-benzenedimethanamine]: the EC50 in the assay on HIV-1 NL4.3 or IIIB (setting [3]) was under 20 µg/mL. In addition, in assay [2], the inhibition at 20 µg/mL was over 20%.

In the case of `Cn1c(CN(CCc2ccccn2)Cc2ccc(CNCc3ccccn3)cc2)nc2ccccc21` [Example 183, N-[1-methylbenzimidazol-2-ylmethyl]-N-[2-(2-pyridinyl)ethyl]-N′-(2-pyridinylmethyl)-1,4-benzenedimethanamine], the inhibition at 20 µM in assay [2] was over 20%.
